Broadly, the Kd is the concentration at which binding is half-saturated.

The target in this experiment is T1, HmtS (Streptomyces himastatinicus, UniProt G0LWB2).
T1 sequence (G0LWB2 2-397): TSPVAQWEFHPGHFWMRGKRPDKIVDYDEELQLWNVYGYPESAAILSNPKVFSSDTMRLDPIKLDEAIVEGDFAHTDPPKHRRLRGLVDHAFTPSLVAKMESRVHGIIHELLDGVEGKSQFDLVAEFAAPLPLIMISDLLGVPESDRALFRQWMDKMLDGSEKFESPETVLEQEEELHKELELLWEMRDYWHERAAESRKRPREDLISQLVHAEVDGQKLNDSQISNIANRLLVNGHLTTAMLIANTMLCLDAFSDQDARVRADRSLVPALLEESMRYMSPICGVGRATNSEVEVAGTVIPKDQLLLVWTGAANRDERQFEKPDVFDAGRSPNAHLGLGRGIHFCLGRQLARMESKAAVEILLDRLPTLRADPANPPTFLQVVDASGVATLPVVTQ
As to the kind of experiment: microscale thermophoresis, NT647-labelled enzyme. It is filed as binding. (MST reads how a fluorescent partner responds to local heating, with and without ligand.)
The compound `NC(=O)C1=CN([C@@H]2O[C@H](COP(=O)(O)OP(=O)(O)OC[C@H]3O[C@@H](n4cnc5c(N)ncnc54)[C@H](OP(=O)(O)O)[C@@H]3O)[C@@H](O)[C@H]2O)C=CC1` [NADPH] showed a Kd of 83 µM.

`Cc1cc2nc3c(=O)[nH]c(=O)nc-3n(C[C@H](O)[C@H](O)[C@H](O)COP(=O)(O)OP(=O)(O)OC[C@H]3O[C@@H](n4cnc5c(N)ncnc54)[C@H](O)[C@@H]3O)c2cc1C` [FAD] displayed a Kd of 43 µM.

In turn, `Cc1cc2nc3c(=O)[nH]c(=O)nc-3n(C[C@H](O)[C@H](O)[C@H](O)COP(=O)(O)O)c2cc1C` [FMN] had a dissociation constant (Kd) of 40 µM.

`Cc1cc2nc3c(=O)[nH]c(=O)nc-3n(C[C@H](O)[C@H](O)[C@H](O)CO)c2cc1C` [riboflavin] gave a Kd of 1.9 µM.
